Source: publication PMC5693942 (Scientific Reports, 2017)
Values after ≈ are worked out from the molar mass of the structure shown. Like-named read-outs stand apart in the source and are kept apart here.

How the values were obtained:
[1] = cited from earlier work
[2] = system: Daphnia magna; test: Daphnia magna acute 48 h immobilization assay (Daphtoxkit); format: in vivo; conditions: for Average effect (N immobile, 5 daphnids per replicate): 48 h;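 for Average effect (N immobile, 5 daphnids per replicate): test concentrations in mg per L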
Protocol: Six concentration levels (5 concentrations plus control, four replicate beakers for each concentrations, five individual for each beaker) were tested. […] Each experiment was repeated in triplicate.

[3] = system: Tetrahymena thermophila; test: microbe, parasite or virus in culture; format: cell-based; conditions: for EC50: Tetrahymena thermophila
Protocol: The tests were performed in accordance with the protocols provided by the manufacturer. […] The tests were carried out in disposable spectrophotometric cells of 1 cm path-length, to enable the measurement of the optical density (OD) at 440 nm. […] This change in OD over the time period is used to quantify the degree of inhibition and subsequent calculation of the EC50. Each concentration was repeated in duplicate.

[4] = Activated sludge simulating microcosms (degradation of FL, formation of NFL); format: physicochemical
Protocol: Activated sludge microcosm experiments were conducted in the dark and aerobic conditions. Three microcosm bioreactors were investigated in duplicate. They were filled with 2 L of fresh activated sludge collected from a local wastewater treatment plant. […] Dark conditions were simulated by covering up the flask with foil. Aerobic conditions were obtained using air from BOC air cylinder and a thorough mixing was maintained using magnetic stirrers. The experiment was 24 hours long. […] Collected samples were subsequently frozen until their analysis to prevent degradation of compounds.
The compounds studied are characterized as having low volatility and therefore volatilization was not considered as a potential removal pathway in studied microcosms. Photodegradation was also not considered (not relevant) under tested activated sludge conditions. Therefore the two important degradation mechanisms to consider were biodegradation and sorption to sludge. […] However, in this study, sorption equilibrium was assumed and therefore sorption could be considered negligible. This is because sorption is assumed to be fast when compared to biological degradation.
Several reports utilized pseudo-first-order kinetics for degradation of micropollutants in activated sludge reactors[48]–[50]. […] Pseudo-first order biodegradation rate k1 [L g^−1h^−1]

[5] = River water simulating microcosms (degradation of FL)

O=C(O)CNC(=O)c1ccccc1 [hippuric acid]
excreted in the urine as this species ([1]; after FL, ref [3]): > 20%

NCC[C@@H](Oc1ccc(C(F)(F)F)cc1)c1ccccc1 [(R)-NFL, (R)-3-phenyl-3-[4-(trifluoromethyl)phenoxy]-1-propanamine]
Average effect (N immobile, 5 daphnids per replicate) ([2]; concentration 0.5): 0.25
Average effect (N immobile, 5 daphnids per replicate) ([2]; concentration 1.5): 0.5
Average effect (N immobile, 5 daphnids per replicate) ([2]; concentration 5): 4.25
Average effect (N immobile, 5 daphnids per replicate) ([2]; concentration 16): 5
Average effect (N immobile, 5 daphnids per replicate) ([2]; concentration 50): 5
EC50 ([2]; Daphnia magna, D. magna, this study, read-out: EC50_48h -immobilization): 2.9 µg/mL (≈ 9.82 µM)
EC50 ([3]; T. thermophila, this study, read-out: EC50_24h -growth): 5.8 µg/mL (≈ 19.6 µM)
EC50 ([3]; definitive test, read-out: 24hEC50): 5.84 µg/mL (≈ 19.8 µM)
EC50 ([3]; range test, read-out: 24hEC50): 0.418 µg/mL (≈ 1.42 µM)
% I (percentage inhibition) ([3]; definitive test, conc. 0.220): -4.385%
% I (percentage inhibition) ([3]; definitive test, conc. 0.661): -11.658%
% I (percentage inhibition) ([3]; definitive test, conc. 22.017): 92.941%
% I (percentage inhibition) ([3]; definitive test, conc. 35.941): 94.118%
% I (percentage inhibition) ([3]; definitive test, conc. 57.505): 94.332%
% I (percentage inhibition) ([3]; definitive test, conc. 118.604): 103.743%
% I (percentage inhibition) ([3]; definitive test, conc. 179.703): 104.492%
% I (percentage inhibition) ([3]; range test, conc. 0.005): 10.591%
% I (percentage inhibition) ([3]; range test, conc. 0.050): -7.266%
% I (percentage inhibition) ([3]; range test, conc. 0.500): 50.369%
% I (percentage inhibition) ([3]; range test, conc. 5.000): 101.108%
% I (percentage inhibition) ([3]; range test, conc. 50.000): 106.897%
Concentration ([4]; 10 µg L-1 microcosm, time 0): 0.035 ± 0.009 ng/mL
Concentration ([4]; 10 µg L-1 microcosm, time 0.5): 0.029 ± 0.001 ng/mL
Concentration ([4]; 10 µg L-1 microcosm, time 1): 0.077 ± 0.004 ng/mL
Concentration ([4]; 10 µg L-1 microcosm, time 1.5): 0.012 ± 0.013 ng/mL
Concentration ([4]; 10 µg L-1 microcosm, time 2): 0.050 ± 0.011 ng/mL
Concentration ([4]; 10 µg L-1 microcosm, time 3): 0.043 ± 0.022 ng/mL
Concentration ([4]; 10 µg L-1 microcosm, time 5): 0.070 ± 0.016 ng/mL
Concentration ([4]; 10 µg L-1 microcosm, time 8): 0.055 ± 0.019 ng/mL
Concentration ([4]; 10 µg L-1 microcosm, time 12): 0.126 ± 0.035 ng/mL
Concentration ([4]; 10 µg L-1 microcosm, time 24): 0.182 ± 0.000 ng/mL
Concentration ([4]; 100 µg L-1 microcosm, time 0): 0.109 ± 0.023 ng/mL
Concentration ([4]; 100 µg L-1 microcosm, time 0.5): 0.132 ± 0.015 ng/mL
Concentration ([4]; 100 µg L-1 microcosm, time 1): 0.128 ± 0.038 ng/mL
Concentration ([4]; 100 µg L-1 microcosm, time 1.5): 0.146 ± 0.039 ng/mL
Concentration ([4]; 100 µg L-1 microcosm, time 2): 0.428 ± 0.019 ng/mL
Concentration ([4]; 100 µg L-1 microcosm, time 3): 0.429 ± 0.164 ng/mL
Concentration ([4]; 100 µg L-1 microcosm, time 5): 0.616 ± 0.227 ng/mL
Concentration ([4]; 100 µg L-1 microcosm, time 8): 0.710 ± 0.193 ng/mL
Concentration ([4]; 100 µg L-1 microcosm, time 12): 0.859 ± 0.069 ng/mL
Concentration ([4]; 100 µg L-1 microcosm, time 24): 1.302 ± 0.066 ng/mL
Concentration ([5]; DAR (dark abiotic), day 5): 0.002 ± 0.000 ng/mL
Concentration ([5]; DBR (dark biotic), day 1): 0.002 ± 0.001 ng/mL
Concentration ([5]; DBR (dark biotic), day 3): 0.002 ± 0.001 ng/mL
Concentration ([5]; DBR (dark biotic), day 5): 0.002 ± 0.001 ng/mL
Concentration ([5]; LAR (light abiotic), day 2): 0.001 ± 0.000 ng/mL
Concentration ([5]; LAR (light abiotic), day 3): 0.004 ± 0.001 ng/mL
Concentration ([5]; LAR (light abiotic), day 4): 0.003 ± 0.000 ng/mL
Concentration ([5]; LAR (light abiotic), day 5): 0.002 ± 0.001 ng/mL
Concentration ([5]; LAR (light abiotic), day 8): 0.001 ± 0.001 ng/mL
Concentration ([5]; LAR (light abiotic), day 9): 0.002 ± 0.001 ng/mL
Concentration ([5]; LAR (light abiotic), day 10): 0.002 ± 0.000 ng/mL
Concentration ([5]; LAR (light abiotic), day 11): 0.003 ± 0.000 ng/mL
Concentration ([5]; LAR (light abiotic), day 12): 0.003 ± 0.001 ng/mL
Concentration ([5]; LAR (light abiotic), day 15): 0.002 ± 0.001 ng/mL
Concentration ([5]; LAR (light abiotic), day 16): 0.004 ± 0.001 ng/mL
Concentration ([5]; LBR (light biotic), day 1): 0.001 ± 0.000 ng/mL
Concentration ([5]; LBR (light biotic), day 2): 0.002 ± 0.000 ng/mL
Concentration ([5]; LBR (light biotic), day 3): 0.002 ± 0.001 ng/mL
Concentration ([5]; LBR (light biotic), day 5): 0.003 ± 0.001 ng/mL

NFL glucuronide
excreted in the urine as this species ([1]; in vivo): 8.2%
